Test results taken from patent publication US20230085307A1, “PYRIDAZINONE COMPOUND AND HERBICIDE” (NISSAN CHEMICAL CORPORATION, priority 2019, published 2023).

Key:
chickweed [1] = assay: Test Example 4: herbicidal effect by soil treatment (Table 19, symbol P); assay type: in vivo, common chickweed (Stellaria media); conditions: amount of applied herbicide 320 g/ha
Outline: (§1)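 Pre-emergence style soil spray: seeds under ~1.5 cm sterilized diluvial soil received a uniform coat of emulsion diluted to the predetermined herbicide amount. Greenhouse 25–30° C; readout at week three on previously defined criteria.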

green foxtail [2] = assay: Test Example 4: herbicidal effect by soil treatment (Table 19, symbol G); assay type: in vivo, green foxtail (Setaria viridis); conditions: amount of applied herbicide 320 g/ha
Outline: as §1

Italian ryegrass [3] = assay: Test Example 5: herbicidal effect by foliage application, plastic box (Table 20, symbol K); assay type: in vivo, Italian ryegrass (Lolium multiflorum); conditions: foliage application, 320 g/ha, three weeks after application
Outline: (§2)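 Plants were sown into sterilized diluvial soil under about 1.5 cm cover and kept in a greenhouse at 25° C. to 30° C. Fourteen days on, foliage received an even spray of the diluted emulsion. Herbicidal or crop effect was judged three weeks afterwards.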

velvetleaf [4] = assay: Test Example 4: herbicidal effect by soil treatment (Table 19, symbol M); assay type: in vivo, velvetleaf (Abutilon theophrasti); conditions: amount of applied herbicide 320 g/ha
Outline: as §1

lambsquarters [5] = assay: Test Example 4: herbicidal effect by soil treatment (Table 19, symbol O); assay type: in vivo, lambsquarters (Chenopodium album); conditions: amount of applied herbicide 320 g/ha
Outline: as §1

lambsquarters [6] = assay: Test Example 5: herbicidal effect by foliage application, plastic box (Table 20, symbol O); assay type: in vivo, lambsquarters (Chenopodium album); conditions: foliage application, 320 g/ha, three weeks after application
Outline: as §2

late watergrass = assay: Test Example 1: herbicidal activity, application before weed generation under submerged conditions (Table 16, symbol A); assay type: in vivo, late watergrass (Echinochloa oryzicola); conditions: amount of applied herbicide 320 g/ha
Outline: (§3)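 Submerged Wagner pots (alluvial soil, 4 cm water) sown with weed seeds and planted with 2.5-leaf rice seedlings; emulsifiable concentrate diluted in water applied to water surface on sowing day. Held in greenhouse at 25-30 °C; injury scored 0-5 by herbicidal rate after three weeks.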

oval-leafed pondweed = assay: Test Example 1: herbicidal activity, application before weed generation under submerged conditions (Table 16, symbol C); assay type: in vivo, oval-leafed pondweed (Monochoria vaginalis); conditions: amount of applied herbicide 320 g/ha
Outline: as §3

blackgrass [7] = assay: Test Example 4: herbicidal effect by soil treatment (Table 19, symbol J); assay type: in vivo, blackgrass (Alopecurus myosuroides); conditions: amount of applied herbicide 320 g/ha
Outline: as §1

blackgrass [8] = assay: Test Example 5: herbicidal effect by foliage application, plastic box (Table 20, symbol J); assay type: in vivo, blackgrass (Alopecurus myosuroides); conditions: foliage application, 320 g/ha, three weeks after application
Outline: as §2

rice flat sedge = assay: Test Example 3: herbicidal effect by foliage application, Wagner pot (Table 18, symbol E); assay type: in vivo, rice flat sedge (Cyperus iria); conditions: 320 g/ha
Outline: (§4)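 Plants were sown in alluvial soil held under 0.1–0.5 cm standing water and grown 14 days in a greenhouse at 25–30 °C. An emulsifiable formulation, water-diluted to the set dose, was then sprayed onto the foliage, and effects were scored three weeks later using previously defined criteria.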

barnyard grass [9] = assay: Test Example 3: herbicidal effect by foliage application, Wagner pot (Table 18, symbol H); assay type: in vivo, barnyard grass (Echinochloa crus-galli); conditions: 320 g/ha
Outline: as §4

persian speedwell [10] = assay: Test Example 4: herbicidal effect by soil treatment (Table 19, symbol R); assay type: in vivo, Persian speedwell (Veronica persica); conditions: amount of applied herbicide 320 g/ha
Outline: as §1

Chinese sprangletop = assay: Test Example 3: herbicidal effect by foliage application, Wagner pot (Table 18, symbol D); assay type: in vivo, chinese sprangletop (Leptochloa chinensis); conditions: 320 g/ha
Outline: as §4

windgrass [11] = assay: Test Example 4: herbicidal effect by soil treatment (Table 19, symbol L); assay type: in vivo, windgrass (Apera spica-venti); conditions: amount of applied herbicide 320 g/ha
Outline: as §1

wild oat [12] = assay: Test Example 4: herbicidal effect by soil treatment (Table 19, symbol I); assay type: in vivo, wild oat (Avena fatua); conditions: amount of applied herbicide 320 g/ha
Outline: as §1

chickweed [13] = assay: Test Example 5: herbicidal effect by foliage application, plastic box (Table 20, symbol P); assay type: in vivo, common chickweed (Stellaria media); conditions: foliage application, 320 g/ha, three weeks after application
Outline: as §2

Japanese bulrush = assay: Test Example 1: herbicidal activity, application before weed generation under submerged conditions (Table 16, symbol B); assay type: in vivo, Japanese bulrush (Schoenoplectus juncoides); conditions: amount of applied herbicide 320 g/ha
Outline: as §3

barnyard grass [14] = assay: Test Example 5: herbicidal effect by foliage application, plastic box (Table 20, symbol H); assay type: in vivo, barnyard grass (Echinochloa crus-galli); conditions: foliage application, 320 g/ha, three weeks after application
Outline: as §2

southern crabgrass [15] = assay: Test Example 4: herbicidal effect by soil treatment (Table 19, symbol F); assay type: in vivo, southern crabgrass (Digitaria ciliaris); conditions: amount of applied herbicide 320 g/ha
Outline: as §1

false cleavers [16] = assay: Test Example 4: herbicidal effect by soil treatment (Table 19, symbol Q); assay type: in vivo, false cleavers (Galium spurium); conditions: amount of applied herbicide 320 g/ha
Outline: as §1

redroot pigweed [17] = assay: Test Example 4: herbicidal effect by soil treatment (Table 19, symbol N); assay type: in vivo, redroot pigweed (Amaranthus retroflexus); conditions: amount of applied herbicide 320 g/ha
Outline: as §1

false cleavers [18] = assay: Test Example 5: herbicidal effect by foliage application, plastic box (Table 20, symbol Q); assay type: in vivo, false cleavers (Galium spurium); conditions: foliage application, 320 g/ha, three weeks after application
Outline: as §2

barnyard grass [19] = assay: Test Example 4: herbicidal effect by soil treatment (Table 19, symbol H); assay type: in vivo, barnyard grass (Echinochloa crus-galli); conditions: amount of applied herbicide 320 g/ha
Outline: as §1

redroot pigweed [20] = assay: Test Example 5: herbicidal effect by foliage application, plastic box (Table 20, symbol N); assay type: in vivo, redroot pigweed (Amaranthus retroflexus); conditions: foliage application, 320 g/ha, three weeks after application
Outline: as §2

velvetleaf [21] = assay: Test Example 5: herbicidal effect by foliage application, plastic box (Table 20, symbol M); assay type: in vivo, velvetleaf (Abutilon theophrasti); conditions: foliage application, 320 g/ha, three weeks after application
Outline: as §2

wild oat [22] = assay: Test Example 5: herbicidal effect by foliage application, plastic box (Table 20, symbol I); assay type: in vivo, wild oat (Avena fatua); conditions: foliage application, 320 g/ha, three weeks after application
Outline: as §2

Italian ryegrass [23] = assay: Test Example 4: herbicidal effect by soil treatment (Table 19, symbol K); assay type: in vivo, Italian ryegrass (Lolium multiflorum); conditions: amount of applied herbicide 320 g/ha
Outline: as §1

windgrass [24] = assay: Test Example 5: herbicidal effect by foliage application, plastic box (Table 20, symbol L); assay type: in vivo, windgrass (Apera spica-venti); conditions: foliage application, 320 g/ha, three weeks after application
Outline: as §2

southern crabgrass [25] = assay: Test Example 5: herbicidal effect by foliage application, plastic box (Table 20, symbol F); assay type: in vivo, southern crabgrass (Digitaria ciliaris); conditions: foliage application, 320 g/ha, three weeks after application
Outline: as §2

persian speedwell [26] = assay: Test Example 5: herbicidal effect by foliage application, plastic box (Table 20, symbol R); assay type: in vivo, Persian speedwell (Veronica persica); conditions: foliage application, 320 g/ha, three weeks after application
Outline: as §2

green foxtail [27] = assay: Test Example 5: herbicidal effect by foliage application, plastic box (Table 20, symbol G); assay type: in vivo, green foxtail (Setaria viridis); conditions: foliage application, 320 g/ha, three weeks after application
Outline: as §2

Row | SMILES | P: chickweed, herbicidal effect grade (chickweed [1]) | G: green foxtail, herbicidal effect grade (green foxtail [2]) | K: Italian ryegrass, herbicidal effect grade (Italian ryegrass [3]) | M: velvetleaf, herbicidal effect grade (velvetleaf [4]) | O: lambsquarters, herbicidal effect grade (lambsquarters [5]) | O: lambsquarters, herbicidal effect grade (lambsquarters [6]) | Herbicidal effect, A: late watergrass (late watergrass) | Herbicidal effect, C: oval-leafed pondweed (oval-leafed pondweed) | J: blackgrass, herbicidal effect grade (blackgrass [7]) | J: blackgrass, herbicidal effect grade (blackgrass [8]) | herbicidal effect on rice flat sedge (E) (rice flat sedge) | herbicidal effect on barnyard grass (H) (barnyard grass [9]) | R: persian speedwell, herbicidal effect grade (persian speedwell [10]) | herbicidal effect on Chinese sprangletop (D) (Chinese sprangletop) | L: windgrass, herbicidal effect grade (windgrass [11]) | I: wild oat, herbicidal effect grade (wild oat [12]) | P: chickweed, herbicidal effect grade (chickweed [13]) | Herbicidal effect, B: Japanese bulrush (Japanese bulrush) | H: barnyard grass, herbicidal effect grade (barnyard grass [14]) | F: southern crabgrass, herbicidal effect grade (southern crabgrass [15]) | also measured
1 | COc1ccc2c(-c3c(O)c(C)nn(C)c3=O)c(-c3ccc(SC)cc3)sc2c1 [3-074] | 3 (Herbicidal rate of 40% or more and less than 70%) | 0 (Herbicidal rate of 5% or less (almost no effect)) | 0 (Herbicidal rate of 5% or less (almost no effect)) | 0 (Herbicidal rate of 5% or less (almost no effect)) | 5 (Herbicidal rate of 90% or more (almost completely withered)) | 5 (Herbicidal rate of 90% or more (almost completely withered)) | 0 (Herbicidal rate of 5% or less (almost no effect)) | 0 (Herbicidal rate of 5% or less (almost no effect)) | 0 (Herbicidal rate of 5% or less (almost no effect)) | 0 (Herbicidal rate of 5% or less (almost no effect)) | 5 (Herbicidal rate of 90% or more (almost completely withered)) | 4 (Herbicidal rate of 70% or more and less than 90%) | 5 (Herbicidal rate of 90% or more (almost completely withered)) | 3 (Herbicidal rate of 40% or more and less than 70%) | 0 (Herbicidal rate of 5% or less (almost no effect)) | 0 (Herbicidal rate of 5% or less (almost no effect)) | 5 (Herbicidal rate of 90% or more (almost completely withered)) | 2 (Herbicidal rate of 20% or more and less than 40%) | 0 (Herbicidal rate of 5% or less (almost no effect)) | 0 (Herbicidal rate of 5% or less (almost no effect)) | Q: false cleavers, herbicidal effect grade (false cleavers [16]): 0 (Herbicidal rate of 5% or less (almost no effect)); N: redroot pigweed, herbicidal effect grade (redroot pigweed [17]): 5 (Herbicidal rate of 90% or more (almost completely withered)); Q: false cleavers, herbicidal effect grade (false cleavers [18]): 5 (Herbicidal rate of 90% or more (almost completely withered)); H: barnyard grass, herbicidal effect grade (barnyard grass [19]): 0 (Herbicidal rate of 5% or less (almost no effect)); N: redroot pigweed, herbicidal effect grade (redroot pigweed [20]): 5 (Herbicidal rate of 90% or more (almost completely withered)); M: velvetleaf, herbicidal effect grade (velvetleaf [21]): 4 (Herbicidal rate of 70% or more and less than 90%); I: wild oat, herbicidal effect grade (wild oat [22]): 0 (Herbicidal rate of 5% or less (almost no effect)); K: Italian ryegrass, herbicidal effect grade (Italian ryegrass [23]): 0 (Herbicidal rate of 5% or less (almost no effect)); L: windgrass, herbicidal effect grade (windgrass [24]): 3 (Herbicidal rate of 40% or more and less than 70%); F: southern crabgrass, herbicidal effect grade (southern crabgrass [25]): 2 (Herbicidal rate of 20% or more and less than 40%); R: persian speedwell, herbicidal effect grade (persian speedwell [26]): 5 (Herbicidal rate of 90% or more (almost completely withered)); G: green foxtail, herbicidal effect grade (green foxtail [27]): 3 (Herbicidal rate of 40% or more and less than 70%)
2 | CCn1nc(C)c(O)c(-c2c(-c3ccccc3OC)sc3cc(OC)ccc23)c1=O [3-084] | 4 (Herbicidal rate of 70% or more and less than 90%) | 0 (Herbicidal rate of 5% or less (almost no effect)) | 1 (Herbicidal rate of 5% or more and less than 20%) | 0 (Herbicidal rate of 5% or less (almost no effect)) | 2 (Herbicidal rate of 20% or more and less than 40%) | 3 (Herbicidal rate of 40% or more and less than 70%) | 0 (Herbicidal rate of 5% or less (almost no effect)) | 1 (Herbicidal rate of 5% or more and less than 20%) | 0 (Herbicidal rate of 5% or less (almost no effect)) | 4 (Herbicidal rate of 70% or more and less than 90%) | 3 (Herbicidal rate of 40% or more and less than 70%) | 5 (Herbicidal rate of 90% or more (almost completely withered)) | 4 (Herbicidal rate of 70% or more and less than 90%) | 0 (Herbicidal rate of 5% or less (almost no effect)) | 0 (Herbicidal rate of 5% or less (almost no effect)) | 2 (Herbicidal rate of 20% or more and less than 40%) | 5 (Herbicidal rate of 90% or more (almost completely withered)) | 3 (Herbicidal rate of 40% or more and less than 70%) | 3 (Herbicidal rate of 40% or more and less than 70%) | 0 (Herbicidal rate of 5% or less (almost no effect)) | Q: false cleavers, herbicidal effect grade (false cleavers [16]): 3 (Herbicidal rate of 40% or more and less than 70%); N: redroot pigweed, herbicidal effect grade (redroot pigweed [17]): 4 (Herbicidal rate of 70% or more and less than 90%); Q: false cleavers, herbicidal effect grade (false cleavers [18]): 5 (Herbicidal rate of 90% or more (almost completely withered)); H: barnyard grass, herbicidal effect grade (barnyard grass [19]): 0 (Herbicidal rate of 5% or less (almost no effect)); N: redroot pigweed, herbicidal effect grade (redroot pigweed [20]): 5 (Herbicidal rate of 90% or more (almost completely withered)); M: velvetleaf, herbicidal effect grade (velvetleaf [21]): 4 (Herbicidal rate of 70% or more and less than 90%); I: wild oat, herbicidal effect grade (wild oat [22]): 3 (Herbicidal rate of 40% or more and less than 70%); K: Italian ryegrass, herbicidal effect grade (Italian ryegrass [23]): 1 (Herbicidal rate of 5% or more and less than 20%); L: windgrass, herbicidal effect grade (windgrass [24]): 3 (Herbicidal rate of 40% or more and less than 70%); F: southern crabgrass, herbicidal effect grade (southern crabgrass [25]): 3 (Herbicidal rate of 40% or more and less than 70%); R: persian speedwell, herbicidal effect grade (persian speedwell [26]): 5 (Herbicidal rate of 90% or more (almost completely withered)); G: green foxtail, herbicidal effect grade (green foxtail [27]): 3 (Herbicidal rate of 40% or more and less than 70%)
